Data from publication PMC12903969, “Discovery of a Novel and Potent Kir4.1 Inhibitor as a Safe and Rapid‐Onset Antidepressant Agent in Mice” (Advanced Science, 2025).
Values joined by “and” are separate entries in the source; they are usually repeats but may differ in a detail not shown here. Equal values may be shown once. Read-outs that look alike come from different tables or passages of the source.

Experiments:
[1] = target: T1, Kir4.1 T155A (Homo sapiens, UniProt P78508, T155A); assay: Whole-cell patch clamp, Kir4.1 point mutant T155A; assay type: cell-based; settings: JX3212 3 µM (Fig 2D)
T1 construct: expressed in transfected cells; host or cells: CHO-K1
T1 sequence (P78508 whole entry T155A): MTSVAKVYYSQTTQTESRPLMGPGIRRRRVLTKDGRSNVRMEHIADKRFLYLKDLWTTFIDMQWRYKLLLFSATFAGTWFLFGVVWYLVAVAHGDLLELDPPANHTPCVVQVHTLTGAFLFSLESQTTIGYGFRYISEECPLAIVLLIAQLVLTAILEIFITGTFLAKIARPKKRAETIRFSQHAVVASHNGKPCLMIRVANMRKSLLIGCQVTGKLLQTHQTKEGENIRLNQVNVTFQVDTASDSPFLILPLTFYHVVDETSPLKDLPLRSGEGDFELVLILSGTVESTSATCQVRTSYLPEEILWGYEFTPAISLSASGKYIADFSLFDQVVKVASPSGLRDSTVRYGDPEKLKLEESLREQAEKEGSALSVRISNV
Description: (§1) Plasmids encoding WT human potassium channels Kir1.1, Kir2.1, Kir2.2, Kir4.1, and Kir4.2 were obtained from the Beijing Genomics Institute. All point mutations were constructed using the QuickChange II Site‐Directed Mutagenesis Kit (Stratagene) and subsequently verified by sequencing.
(§2) CHO‐K1 cells were maintained in DMEM/F12 growth medium containing 10% fetal bovine serum. Plasmids encoding the target genes (3600 ng) and enhanced green fluorescent protein (400 ng) were cotransfected into cells using Lipofectamine 2000 (Invitrogen) in accordance with the manufacturer's instructions. Cells were seeded onto poly‐d‐lysine (PDL)‐coated glass coverslips 1 h prior to electrophysiological recordings. […]
(§3) Whole‐cell patch‐clamp recordings were obtained either in transiently transfected CHO‐K1 cells or in primary cultured astrocytes at room temperature using standard patch‐clamp techniques with an Axopatch‐700B amplifier (Axon Instruments). […] Macroscopic currents generated by expressed potassium channels were recorded under the voltage‐clamp conditions with an internal pipette solution composed of (in mM): 140 KCl, 5 NaCl, 1 CaCl2, 1 MgCl2, 10 HEPES, and 10 EGTA, pH 7.2 adjusted with KOH. […] Astrocytic resting membrane potentials were recorded under current‐clamp conditions (I = 0 pA) using standard internal and external solutions, determined immediately after achieving whole‐cell mode.

[2] = system: mice; assay: Hippocampal inflammatory cytokines (IL-6, TNF-α) after 14-day administration; assay type: in vivo; design: IL-6 / TNF-α: unit not given here; settings: for IL-6 / TNF-α: hippocampus, 14-day administration, individual animals
[3] = system: mice; assay: Shuttle box test (SBT); assay type: in vivo
Description: This test was designed to measure learning and memory function in rodents. The shuttle box consists of two compartments connected by a freely passable gate. The mice were allowed to explore the test chamber freely for 5 min before the test to eliminate exploratory reflexes. Each mouse was placed in one compartment of the shuttle box. The conditioning protocol began with a 5‐s conditioned stimulus presentation of light (200 lux) and auditory tone (100 dB, 1000 Hz), followed immediately by a 3‐s footshock (300 µA) unconditioned stimulus. Escape to the opposite compartment during the conditioned stimulus presentation was scored as an active avoidance response, whereas escape occurring only after shock onset was recorded as […]. […] Each test session consisted of 40 trials with 10‐s inter‐trial intervals, with the number of active avoidance responses systematically recorded.

[4] = system: MDA-MB-468 breast cancer cells; assay: Cytotoxicity test (CCK-8); assay type: cell-based; settings: Homo sapiens, MDA-MB-468, 48 h, CCK-8, 48 h; read-out: IC50 against MDA-MB-468 breast cancer cells
Procedure, shortened: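 Cells seeded at 12,000/well in L15 for 24 h, then exposed 48 h to compounds at 0.41-100.00 µM (DMSO <0.4%). Viability by 10% CCK-8, 2 h at 37 °C, absorbance 450 nm, expressed as percent of control.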

[5] = target: T2, Kir4.1 E158N (Homo sapiens, UniProt P78508, E158N); assay: Whole-cell patch clamp, Kir4.1 point mutant E158N; assay type: cell-based
T2 construct: expressed in transfected cells; host or cells: CHO-K1
T2 sequence (P78508 1-379 E158N): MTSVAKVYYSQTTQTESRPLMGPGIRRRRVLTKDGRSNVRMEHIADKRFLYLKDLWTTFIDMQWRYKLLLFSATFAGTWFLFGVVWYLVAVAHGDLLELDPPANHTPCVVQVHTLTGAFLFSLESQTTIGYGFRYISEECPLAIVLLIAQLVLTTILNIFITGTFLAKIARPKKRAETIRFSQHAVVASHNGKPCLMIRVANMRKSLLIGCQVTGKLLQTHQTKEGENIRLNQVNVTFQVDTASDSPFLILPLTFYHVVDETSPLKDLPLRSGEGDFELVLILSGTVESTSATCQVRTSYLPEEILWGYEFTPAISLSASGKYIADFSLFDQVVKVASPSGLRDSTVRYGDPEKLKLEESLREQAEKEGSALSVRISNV
Description: as §1
CHO‐K1 cells were maintained in DMEM/F12 growth medium containing 10% fetal bovine serum. Plasmids encoding the target genes (3600 ng) and enhanced green fluorescent protein (400 ng) were cotransfected into cells using Lipofectamine 2000 (Invitrogen) in accordance with the manufacturer's instructions. Cells were seeded onto poly‐d‐lysine (PDL)‐coated glass coverslips 1 h prior to electrophysiological recordings. All cells were cultured under standard conditions of 5% CO2 at 37 °C.
Whole‐cell patch‐clamp recordings were obtained either in transiently transfected CHO‐K1 cells or in primary cultured astrocytes at room temperature using standard patch‐clamp techniques with an Axopatch‐700B amplifier (Axon Instruments). The signals were filtered at 2 kHz and sampled at 20 kHz using the Digidata 1440A interface (Axon Instruments). The resistance of borosilicate glass pipettes was typically 2–4 MΩ when filled with the internal solution. Drug application was facilitated using a BPS perfusion system (ALA Scientific Instruments). Macroscopic currents generated by expressed potassium channels were recorded under the voltage‐clamp conditions with an internal pipette solution composed of (in mM): 140 KCl, 5 NaCl, 1 CaCl2, 1 MgCl2, 10 HEPES, and 10 EGTA, pH 7.2 adjusted with KOH. The external solution contained (in mM): 140 NaCl, 5 KCl, 2 CaCl2, 1 MgCl2, 10 glucose, and 10 HEPES, pH 7.4 adjusted with NaOH. Currents were elicited with a hyperpolarized voltage at −120 mV from the holding potential of −80 mV, followed by a ramp voltage depolarizing to +50 mV. Astrocytic resting membrane potentials were recorded under current‐clamp conditions (I = 0 pA) using standard internal and external solutions, determined immediately after achieving whole‐cell mode.

[6] = system: Kir4.1 cKO astrocytes; assay: Patch clamp of Kir4.1 cKO primary astrocytes; assay type: cell-based, mouse; settings: tamoxifen-treated Kir4.1 cKO astrocytes, 3 µM
Description: Astrocytes were isolated and cultured as previously described.^[ [16] ^] Briefly, the cortices from P1‐P4 mouse pups were dissected and incubated for 25 min in Hank's Balanced Salt Solution (22.5 ml) with 2.5% trypsin (2.5 ml) at 37 °C. Cells were dissociated in cultured medium (DMEM/F12 supplemented with 10% fetal bovine serum and 1% penicillin and streptomycin) and filtered with a 70‐µm cell strainer. Cell suspensions were cultured in PDL‐pretreated 75‐cm^2 flasks for the initial seven days, with half of the medium replaced every 2 days. Subsequently, the cultures were shaken at 220 rpm for 6 h at 37 °C to remove microglia and oligodendrocytes from the astrocyte layers. […]
as §3

[7] = target: T3, Kir2.2 (Homo sapiens, UniProt Q14500); assay: Whole-cell patch clamp, Kir2.2; assay type: cell-based; settings: mean ± SEM
T3 construct: host or cells: CHO-K1
T3 sequence (Q14500 whole entry): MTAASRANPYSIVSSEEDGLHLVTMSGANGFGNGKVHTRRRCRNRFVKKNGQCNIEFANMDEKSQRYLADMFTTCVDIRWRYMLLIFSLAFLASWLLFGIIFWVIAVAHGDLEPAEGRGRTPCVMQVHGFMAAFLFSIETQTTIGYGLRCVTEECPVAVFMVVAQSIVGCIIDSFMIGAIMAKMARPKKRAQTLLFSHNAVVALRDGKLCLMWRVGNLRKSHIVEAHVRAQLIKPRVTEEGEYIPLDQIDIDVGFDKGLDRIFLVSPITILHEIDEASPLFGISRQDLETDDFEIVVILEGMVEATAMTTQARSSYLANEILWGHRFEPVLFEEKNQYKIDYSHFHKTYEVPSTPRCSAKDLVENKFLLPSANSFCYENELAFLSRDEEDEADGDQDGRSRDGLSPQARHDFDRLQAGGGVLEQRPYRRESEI
Description: as §1, §2, §3

c1ccc2c(c1)oc1ccc(Nc3ccnc(NCCCN4CCOCC4)n3)cc12 [JX3212, N^4-(dibenzo[b,d]furan-2-yl)-N^2-(3-morpholinopropyl)pyrimidine-2,4-diamine]
Mutation: T155A inhibition, single recordings [1]: 94.2403 and 81.3915 and 95.4304 | inhibition at 3 µM ([1]; read-out: Mutation: T155A inhibition, single recordings): 94.3% | hippocampal interleukin-6 level (in words) ([2]; 3/10 mg kg−1 for 14 days): did not elevate | hippocampal tumor necrosis factor-alpha level (in words) ([2]; 3/10 mg kg−1 for 14 days): did not elevate | IL-6 ([2]; 3 mg/kg): 45.0571 and 32.8331 and 24.8073 and 32.2935 and 22.1265 and 25.6335 and 36.1041 and 30.8941 and 28.8202 and 44.6187 and 40.1844 and 35.7837 and 22.7841 and 20.9462 and 42.3088 | TNF-α ([2]; 3 mg/kg): 465.065 and 545.129 and 550.438 and 437.245 and 389.037 and 473.135 and 223.18 and 189.621 and 460.606 and 247.598 and 569.127 and 488.638 and 325.113 and 294.957 | IL-6 ([2]; 10 mg/kg): 35.0924 and 32.8836 and 20.727 and 32.5464 and 25.9876 and 35.1767 and 33.4906 and 33.3389 and 29.4778 and 46.0519 and 38.6332 and 35.1936 and 20.9968 and 23.4416 and 42.3425 | TNF-α ([2]; 10 mg/kg): 489.276 and 552.137 and 604.805 and 420.68 and 480.356 and 484.816 and 216.59 and 243.988 and 478.02 and 253.544 and 531.962 and 451.261 and 319.804 and 494.16 | shuttle box active avoidance responses (in words) ([3]; chronic 10 mg kg−1 per day): no significant differences | SBT active avoidance responses, single mice ([3]; chronic 10 mg/kg per day (Fig 5G)): 22 and 29 and 31 and 32 and 21 and 24 and 28 and 25 | IC50 [4]: 13.7 ± 0.61 µM | inhibition at 3 µM ([5]; 3 µM, mean ± SEM, read-out: current inhibition, Kir4.1 E158N): 29.4 ± 2.66% | Mutation: E158N inhibition, single recordings ([5]; JX3212 3 µM (Fig 2D)): 26.6694 and 31.4659 and 31.9554 | inhibition at 3 µM ([5]; JX3212 3 µM (Fig 2D), read-out: Mutation: E158N inhibition, single recordings): 27.7% | JX3212-induced effects in Kir4.1 cKO astrocytes (in words) [6]: abolished | inhibition at 3 µM [7]: 14.3 ± 8.36%
